Assay results reported in patent US11498903B2 (BRISTOL-MYERS SQUIBB COMPANY, priority 2017, dated 2022).
Where two headings read alike, the source gives them in different places.

Molecular target: T1, human APJ receptor (Homo sapiens, UniProt P35414)
T1 construct: expressed in transfected cells
T1 sequence (P35414 1-380): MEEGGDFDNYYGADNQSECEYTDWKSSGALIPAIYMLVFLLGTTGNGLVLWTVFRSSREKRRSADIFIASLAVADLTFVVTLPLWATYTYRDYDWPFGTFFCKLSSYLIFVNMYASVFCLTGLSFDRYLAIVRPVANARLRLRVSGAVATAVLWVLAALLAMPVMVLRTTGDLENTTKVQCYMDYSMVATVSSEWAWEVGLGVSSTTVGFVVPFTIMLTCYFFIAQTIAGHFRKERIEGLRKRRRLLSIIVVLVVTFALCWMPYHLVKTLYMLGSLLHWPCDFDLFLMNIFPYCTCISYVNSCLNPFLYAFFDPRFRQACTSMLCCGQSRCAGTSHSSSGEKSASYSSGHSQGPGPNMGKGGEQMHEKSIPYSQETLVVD
Assay: Intracellular cAMP accumulation assay (APJ hcAMP, HTRF)
Assay type: cell-based
Conditions: HEK293 cells stably expressing human APJ receptor
Description: Intracellular cAMP Accumulation Assay
HEK293 cells stably expressing human APJ receptor were used to assess the activity of compounds. Cultured cells were detached and resuspended in the cAMP Homogeneous Time-Resolved Fluorescence (HTRF) assay buffer (Cisbio cat; #62AM4PEJ). The assay was performed in 384-well assay plates (Perkin-Elmer; cat #6008289) according to assay protocol provided by the manufacturer. Serial dilutions of a compound together with assay buffer containing […] IBMX and 2 μM forskolin were added to each well containing 5,000 cells and incubated for 30 minutes at room temperature. Subsequently, cAMP D2 reagent was added in the lysis buffer followed by the EuK antibody (Cisbio; cat #62AM4PEJ) and incubated for 60 min. The fluorescence emission ratio was measured using fluorometer. The intracellular cAMP concentrations (compound-stimulated inhibition of forskolin-mediated cAMP production) were calculated by extrapolation from a standard curve using known cAMP concentrations. The EC50 values were obtained by fitting the data to a sigmoidal concentration-response curve with variable slope. The maximal achievable inhibition of forskolin-induced cAMP levels (Ymax) for each compound was expressed as relative percentage of inhibition attained using pyroglutamated apelin-13 ((Pyrl)apelin-13) peptide, which was set to 100%.
The exemplified Examples disclosed below were tested in the APJ in vitro assays described above and were found having human APJ cyclic AMP (hcAMP) activity. Table 1 lists hcAMP EC50 values measured for the following examples. Ranges are as followε: A=0.0-10 nM; B=10.01-100 nM; C=101-500 nM.

[1] = Table 1, inhibition of forskolin-mediated cAMP production, read-out: APJ hcAMP EC50
[2] = Table 3, read-out: APJ cAMP Human EC50

`CCC[C@@H](NC(=O)c1ccc(-c2c(Cl)cccc2-c2nc3ccccc3[nH]2)c(C(=O)O)c1)c1ccccc1` (atropisomer, axis not shown) [Example 81, (S)-2′-(1H-benzo[d]imidazol-2-yl)-6′-chloro-4-(((R)-1-phenylbutyl)carbamoyl)-[1,1′-biphenyl]-2-carboxylic acid] gave an EC50 [1] of less than 10 nM and an EC50 [2] of less than 10 nM.
In the case of `COC[C@@H](NC(=O)c1ccc(-c2c(Cl)cccc2-c2nc3ccccc3[nH]2)c(C(=O)O)c1)c1ccccc1` (atropisomer, axis not shown) [Example 82, (S)-2′-(1H-benzo[d]imidazol-2-yl)-6′-chloro-4-(((S)-2-methoxy-1-phenylethyl)carbamoyl)-[1,1′-biphenyl]-2-carboxylic acid], the EC50 [2] is reported as 10 to 100 nM.
With `CCC[C@@H](NC(=O)c1ccc(-c2c(Cl)cccc2-c2nc3cc(OC)c(F)cc3[nH]2)c(C(=O)OC)c1)c1ccccc1` (atropisomer, axis not shown) [Example 83, methyl (S)-2′-chloro-6′-(6-fluoro-5-methoxy-1H-benzo[d]imidazol-2-yl)-4-(((R)-1-phenylbutyl)carbamoyl)-[1,1′-biphenyl]-2-carboxylate] the EC50 [2] was 10 to 100 nM.
`CCC[C@@H](NC(=O)c1ccc(-c2c(Cl)cccc2-c2nc3cc(Cl)c(F)cc3[nH]2)c(C(=O)O)c1)c1ccccc1` (atropisomer, axis not shown) [Example 85, (S)-2′-chloro-6′-(5-chloro-6-fluoro-1H-1,3-benzodiazol-2-yl)-4-{[(1R)-1-phenylbutyl]carbamoyl}-[1,1′-biphenyl]-2-carboxylic acid] gave an EC50 [2] of less than 10 nM.
In the case of `CCC[C@@H](NC(=O)c1ccc(-c2c(Cl)cccc2-c2nc3cc(Cl)c(F)cc3[nH]2)c(C(=O)OC)c1)c1ccccc1` (atropisomer, axis not shown) [Example 86, (S)-methyl 2′-chloro-6′-(5-chloro-6-fluoro-1H-1,3-benzodiazol-2-yl)-4-{[(1R)-1-phenylbutyl]carbamoyl}-[1,1′-biphenyl]-2-carboxylate], the EC50 [2] is reported as 101 to 500 nM.
With `CCC[C@@H](NC(=O)c1ccc(-c2c(Cl)cccc2-c2nc3cc(O)c(F)cc3[nH]2)c(C(=O)O)c1)c1ccccc1` (atropisomer, axis not shown) [Example 87, (S)-2′-chloro-6′-(6-fluoro-5-hydroxy-1H-1,3-benzodiazol-2-yl)-4-{[(1R)-1-phenylbutyl]carbamoyl}-[1,1′-biphenyl]-2-carboxylic acid] the EC50 [1] was less than 10 nM and the EC50 [2] was less than 10 nM.
In the case of `CCC[C@@H](NC(=O)c1ccc(-c2c(Cl)cccc2-c2nc3ccc(F)c(F)c3[nH]2)c(C(=O)O)c1)c1ccccc1` (atropisomer, axis not shown) [Example 88, (S)-2′-chloro-6′-(6,7-difluoro-1H-1,3-benzodiazol-2-yl)-4-{[(1R)-1-phenylbutyl]carbamoyl}-[1,1′-biphenyl]-2-carboxylic acid], the EC50 [2] is reported as less than 10 nM.
Compound `CCC[C@@H](NC(=O)c1ccc(-c2c(Cl)cccc2-c2nc3cc(F)c(F)cc3[nH]2)c(C(=O)O)c1)c1ccccc1` (atropisomer, axis not shown) [Example 89, (S)-2′-chloro-6′-(5,6-difluoro-1H-1,3-benzodiazol-2-yl)-4-{[(1R)-1-phenylbutyl]carbamoyl}-[1,1′-biphenyl]-2-carboxylic acid] has an EC50 [1] of less than 10 nM and an EC50 [2] of less than 10 nM.
For `CCC[C@@H](NC(=O)c1ccc(-c2c(Cl)cccc2-c2nc3cc(F)cc(F)c3[nH]2)c(C(=O)O)c1)c1ccccc1` (atropisomer, axis not shown) [Example 90, (S)-2′-chloro-6′-(5,7-difluoro-1H-1,3-benzodiazol-2-yl)-4-{[(1R)-1-phenylbutyl]carbamoyl}-[1,1′-biphenyl]-2-carboxylic acid], the EC50 [1] was less than 10 nM and the EC50 [2] was less than 10 nM.
For `CCC[C@@H](NC(=O)c1ccc(-c2c(Cl)cccc2-c2nc3cccc(O)c3[nH]2)c(C(=O)O)c1)c1ccccc1` (atropisomer, axis not shown) [Example 92, (S)-2′-chloro-6′-(7-hydroxy-1H-1,3-benzodiazol-2-yl)-4-{[(1R)-1-phenlylbutyl]carbamoyl}-[1,1′-biphenyl]-2-carboxylic acid], the EC50 [1] was less than 10 nM and the EC50 [2] was less than 10 nM.
Work on `CCC[C@@H](NC(=O)c1ccc(-c2c(Cl)cccc2-c2nc3cc(Cl)cc(Cl)c3[nH]2)c(C(=O)O)c1)c1ccccc1` (atropisomer, axis not shown) [Example 94, (S)-2′-chloro-6′-(5,7-dichloro-1H-1,3-benzodiazol-2-yl)-4-{[(1R)-1-phenylbutyl]carbamoyl}-[1,1′-biphenyl]-2-carboxylic acid] yielded an EC50 [1] of less than 10 nM and an EC50 [2] of less than 10 nM.
`CCC[C@@H](NC(=O)c1ccc(-c2c(Cl)cccc2-c2nc3cc(Cl)cc(C)c3[nH]2)c(C(=O)O)c1)c1ccccc1` (atropisomer, axis not shown) [Example 95, (S)-2′-chloro-6′-(5-chloro-7-methyl-1H-1,3-benzodiazol-2-yl)-4-{[(1R)-1-phenylbutyl]carbamoyl}-[1,1′-biphenyl]-2-carboxylic acid] was tested, and the EC50 [1] was less than 10 nM and the EC50 [2] was less than 10 nM.
Compound `CCC[C@@H](NC(=O)c1ccc(-c2c(Cl)cccc2-c2nc3cc(F)cc(F)c3[nH]2)c(C(=O)O)c1)c1ccccc1` (atropisomer, axis not shown) [Example 96, (S)-2′-chloro-6′-(5,7-difluoro-1H-1,3-benzodiazol-2-yl)-4-{[(1R)-1-phenylbutyl]carbamoyl}-[1,1′-biphenyl]-2-carboxylic acid] has an EC50 [1] of less than 10 nM.
`CCC[C@@H](NC(=O)c1ccc(-c2c(Cl)cccc2-c2nc3cc(Cl)c(C)cc3[nH]2)c(C(=O)O)c1)c1ccccc1` (atropisomer, axis not shown) [Example 97, (S)-2′-chloro-6′-(5-chloro-6-methyl-1H-1,3-benzodiazol-2-yl)-4-{[(1R)-1-phenylbutyl]carbamoyl}-[1,1′-biphenyl]-2-carboxylic acid] was tested, and the EC50 [2] was 10 to 100 nM.
`CCC[C@@H](NC(=O)c1ccc(-c2c(Cl)cccc2-c2nc3c(OC)ccc(OC)c3[nH]2)c(C(=O)O)c1)c1ccccc1` (atropisomer, axis not shown) [Example 98, (S)-2′-chloro-6′-(4,7-dimethoxy-1H-1,3-benzodiazol-2-yl)-4-{[(1R)-1-phenylbutyl]carbamoyl}-[1,1′-biphenyl]-2-carboxylic acid] gave an EC50 [2] of 10 to 100 nM.
With `CCC[C@@H](NC(=O)c1ccc(-c2c(Cl)cccc2-c2nc3cccc(O)c3[nH]2)c(C(=O)O)c1)c1ccccc1` (atropisomer, axis not shown) [Example 99, (S)-2′-chloro-6′-(7-hydroxy-1H-1,3-benzodiazol-2-yl)-4-{[(1R)-1-phenylbutyl]carbamoyl}-[1,1′-biphenyl]-2-carboxylic acid] the EC50 [1] was 10 to 100 nM and the EC50 [2] was 10 to 100 nM.
With `CCC[C@@H](NC(=O)c1ccc(-c2c(Cl)cccc2-c2ncc(-c3ccccc3)[nH]2)c(C(=O)O)c1)c1ccccc1` (atropisomer, axis not shown) [Example 102, (S)-2′-chloro-6′-(5-phenyl-1H-imidazol-2-yl)-4-{[(1R)-1-phenylbutyl]carbamoyl}-[1,1′-biphenyl]-2-carboxylic acid] the EC50 [1] was less than 10 nM and the EC50 [2] was less than 10 nM.
Compound `CCC[C@@H](NC(=O)c1ccc(-c2c(Cl)cccc2-c2ncc(-c3cccc(OC)c3)[nH]2)c(C(=O)O)c1)c1ccccc1` (atropisomer, axis not shown) [Example 103, (S)-2′-chloro-6′-[5-(3-methoxyphenyl)-1H-imidazol-2-yl]-4-{[(1R)-1-phenylbutyl]carbamoyl}-[1,1′-biphenyl]-2-carboxylic acid] has an EC50 [1] of less than 10 nM and an EC50 [2] of less than 10 nM.
`CCC[C@@H](NC(=O)c1ccc(-c2c(Cl)cccc2-c2ncc(-c3ccc(C)c(F)c3)[nH]2)c(C(=O)O)c1)c1ccccc1` (atropisomer, axis not shown) [Example 104, (S)-2′-chloro-6′-[5-(3-fluoro-4-methylphenyl)-1H-imidazol-2-yl]-4-{[(1R)-1-phenylbutyl]carbamoyl}-[1,1′-biphenyl]-2-carboxylic acid] was tested, and the EC50 [1] was less than 10 nM and the EC50 [2] was less than 10 nM.
Compound `CCC[C@@H](NC(=O)c1ccc(-c2c(Cl)cccc2-c2ncc(-c3ccc(OC)cc3)[nH]2)c(C(=O)O)c1)c1ccccc1` (atropisomer, axis not shown) [Example 105, (S)-2′-chloro-6′-[5-(4-methoxyphenyl)-1H-imidazol-2-yl]-4-{[(1R)-1-phenylbutyl]carbamoyl}-[1,1′-biphenyl]-2-carboxylic acid] has an EC50 [1] of less than 10 nM and an EC50 [2] of less than 10 nM.
